From the NIST ThermoML archive (doi:10.1021/acs.jced.6b00391)
Where “and” joins values, the source holds several entries; their conditions need not be identical. Equal values may be shown once.

Experiments:
[1] = Liquid, Capillary tube (Ostwald / Ubbelohde) method
[2] = xn = mol fraction of the nth substance listed; conditions: Liquid, Capillary tube (Ostwald / Ubbelohde) method

CCCCCCCCCCCC [dodecane]
[1], 5000 kPa
Conditions	viscosity
303.2 K	1.334 mPa·s and 1.314 mPa·s
313.2 K	1.122 mPa·s and 1.116 mPa·s
323 K	0.97 mPa·s and 0.9626 mPa·s
333.1 K	0.8519 mPa·s and 0.8434 mPa·s
343.3 K	0.7442 mPa·s and 0.7445 mPa·s
353.3 K	0.6736 mPa·s and 0.6661 mPa·s
363.2 K	0.6075 mPa·s and 0.5969 mPa·s
373.3 K	0.5467 mPa·s and 0.5397 mPa·s
383.2 K	0.4902 mPa·s and 0.4913 mPa·s
393.2 K	0.4472 mPa·s and 0.448 mPa·s
403.2 K	0.4112 mPa·s and 0.4118 mPa·s
413.2 K	0.3785 mPa·s and 0.3799 mPa·s
423.2 K	0.3508 mPa·s and 0.3516 mPa·s
433.2 K	0.3277 mPa·s and 0.3259 mPa·s
443.4 K	0.2974 mPa·s and 0.3041 mPa·s
453.1 K	0.2822 mPa·s and 0.2827 mPa·s
463.2 K	0.2604 mPa·s and 0.2619 mPa·s
473.2 K	0.244 mPa·s and 0.244 mPa·s
483.1 K	0.225 mPa·s and 0.2259 mPa·s
493.2 K	0.2076 mPa·s and 0.2072 mPa·s
503.2 K	0.1964 mPa·s and 0.1969 mPa·s
513.1 K	0.1846 mPa·s and 0.1835 mPa·s
523.2 K	0.1722 mPa·s and 0.1698 mPa·s
533.1 K	0.1608 mPa·s and 0.1591 mPa·s
543.2 K	0.1489 mPa·s and 0.1487 mPa·s
553.2 K	0.1375 mPa·s and 0.1391 mPa·s
563.2 K	0.1297 mPa·s and 0.1305 mPa·s
573.2 K	0.1201 mPa·s and 0.1221 mPa·s
583.3 K	0.1126 mPa·s and 0.1141 mPa·s
593.2 K	0.1031 mPa·s and 0.1064 mPa·s
603.2 K	0.0974 mPa·s and 0.0987 mPa·s
613.2 K	0.0913 mPa·s and 0.0915 mPa·s
623.1 K	0.0839 mPa·s and 0.0849 mPa·s
633.2 K	0.0767 mPa·s and 0.0786 mPa·s
643.1 K	0.0694 mPa·s and 0.0714 mPa·s
653.2 K	0.0657 mPa·s and 0.065 mPa·s
663.2 K	0.0605 mPa·s and 0.0605 mPa·s
673.2 K	0.0551 mPa·s and 0.0548 mPa·s

CCCCCCCC [octane]
[1], 3100 kPa
Conditions	viscosity
303.2 K	0.4913 mPa·s and 0.4948 mPa·s
313.3 K	0.4426 mPa·s and 0.4431 mPa·s
323.2 K	0.3961 mPa·s and 0.3979 mPa·s
333.2 K	0.3634 mPa·s and 0.3617 mPa·s
343.2 K	0.3311 mPa·s and 0.3308 mPa·s
353.1 K	0.3013 mPa·s and 0.3032 mPa·s
363.2 K	0.2765 mPa·s and 0.2775 mPa·s
373.3 K	0.254 mPa·s and 0.258 mPa·s
383 K	0.234 mPa·s and 0.2379 mPa·s
393.1 K	0.2205 mPa·s and 0.2202 mPa·s
403.2 K	0.2019 mPa·s and 0.204 mPa·s
413.2 K	0.1905 mPa·s and 0.1902 mPa·s
423.2 K	0.1761 mPa·s and 0.1775 mPa·s
433.1 K	0.1643 mPa·s and 0.1642 mPa·s
443.2 K	0.1526 mPa·s and 0.1514 mPa·s
453.1 K	0.1417 mPa·s and 0.1428 mPa·s
463.2 K	0.1321 mPa·s and 0.1318 mPa·s
473.1 K	0.1228 mPa·s and 0.1241 mPa·s
483.1 K	0.1138 mPa·s and 0.1152 mPa·s
493.1 K	0.1068 mPa·s and 0.1072 mPa·s
503 K	0.0993 mPa·s and 0.0983 mPa·s
513.2 K	0.0901 mPa·s and 0.0904 mPa·s
523.3 K	0.0825 mPa·s and 0.0826 mPa·s
533.4 K	0.0753 mPa·s and 0.0751 mPa·s
543.4 K	0.0678 mPa·s and 0.0678 mPa·s
553.4 K	0.0607 mPa·s and 0.0609 mPa·s
563.3 K	0.0532 mPa·s and 0.0534 mPa·s
573.3 K	0.0444 mPa·s and 0.0446 mPa·s
583.1 K	0.0325 mPa·s and 0.0323 mPa·s

CCCCCCCC [octane] + CCCCCCC
viscosity, [2]
Conditions	100 kPa	5000 kPa
303.5 K, x2 = 0.255	0.4422 mPa·s and 0.4417 mPa·s	–
303.5 K, x2 = 0.51	0.4149 mPa·s and 0.413 mPa·s	0.4362 mPa·s and 0.4357 mPa·s
303.9 K, x2 = 0.255	–	0.4663 mPa·s and 0.4658 mPa·s
305.7 K, x2 = 0.759	0.3798 mPa·s and 0.3784 mPa·s	0.4032 mPa·s and 0.4029 mPa·s
333.5 K, x2 = 0.51	0.3011 mPa·s and 0.3026 mPa·s	–
333.8 K, x2 = 0.255	0.3234 mPa·s and 0.3228 mPa·s	–
335.6 K, x2 = 0.759	0.2815 mPa·s and 0.2806 mPa·s	–
363.4 K, x2 = 0.255	0.2447 mPa·s and 0.2464 mPa·s	–
363.4 K, x2 = 0.51	0.2329 mPa·s and 0.2323 mPa·s	–
364.6 K, x2 = 0.759	0.2164 mPa·s and 0.2169 mPa·s	–
373.2 K, x2 = 0.255	–	0.2415 mPa·s and 0.2402 mPa·s
373.2 K, x2 = 0.759	–	0.2181 mPa·s and 0.2175 mPa·s
373.6 K, x2 = 0.51	–	0.2277 mPa·s and 0.2275 mPa·s
413.7 K, x2 = 0.51	–	0.1702 mPa·s and 0.1698 mPa·s
413.9 K, x2 = 0.255	–	0.1792 mPa·s and 0.1801 mPa·s
424.4 K, x2 = 0.759	–	0.1497 mPa·s and 0.1493 mPa·s
472.5 K, x2 = 0.759	–	0.1071 mPa·s and 0.1075 mPa·s
473.4 K, x2 = 0.51	–	0.1124 mPa·s and 0.1125 mPa·s
473.5 K, x2 = 0.255	–	0.1186 mPa·s and 0.1184 mPa·s
